Experimental data as given in patent publication US20260028334A1, “N-(3-(BENZO[B]THIOPHENE-2-CARBOXAMIDO)-PHENYL)-2,3-DIHYDROBENZO[B][1,4]DIOXINE-6-CARBOXAMIDE DERIVATIVES AND RELATED COMPOUNDS AS LACTATE/ATP PRODUCTION INHIBITORS FOR THE TREATMENT OF CANCER” (WMT Aktiengesellschaft, priority 2022, published 2026).

What was measured:
Type in all cases: cell-based
[1] = tested on: ER stress markers CHAC, CHOP/DDIT3, XBP1 and SLC7A11; assay: Gene expression analysis by qPCR (FIG. 3); settings: HeLa, 4T1, LLC1, A549, MDA-MB-231 and MiaPaCa2 cells, 10 nM, 0.5, 1, 2 and 4 hours
Procedure: Cells were plated at 40,000 cells per ml in medium of high glucose DMEM (PAN) supplemented with 10% FBS (PAN), 2 mM glutamine-alanine (PAN), 2 mM pyruvate (Sigma) and 10 mL/L penicillin-streptomycin (PAN), and grown at 37° C. in 0.5% O2, 5% CO2 and 75% humidity. Next day, cells were induced with test compounds (FIG. 3: compounds of example 3/16, 3/8, 10 at 10 nM; FIG. 8E-8AB: compounds of example 3/16, 3/8, 10, 3/19, 30 and 30/2 at 10 nM) 0.5, 1, 2 and 4 hours, as well as with vehicle (DMSO) only. After this time, the cells were lysed according to protocol (Promega, SV 96 Total RNA Isolation System, #Z3505). After transferring the lysate to a 96-well-RNA binding plate, RNA was isolated and put at approx. 1 μg into cDNA synthesis using LunaScript RT SuperMix Kit (NEB, #E3010). The resulting cDNA was diluted 1:5 and used for qPCR Analysis (Taqman). Luna Universal Probe qPCR Master Mix (NEB, #M3004) is used as 2× reaction mix to which the diluted cDNA is added. The qPCR analysis was performed using QuantStudio™ 6 Flex real-time PCR systems (Thermo Fisher Scientific).
A set of primers plus probe for each gene of interest was purchased at IDT (Integrated DNA Technologies).

[2] = tested on: HeLa, 4T1, LLC1, A549, MDA-MB-231 and MiaPaCa2 cells; assay: Assay for inhibition of ATP production (FIG. 1); settings: 48 hours treatment, 1.5 to 10000 nM
Procedure: The assay determines the amount of ATP in cells in culture.
Cells were plated at 4,000 per well in 96-well plate in a medium of high glucose DMEM (PAN) supplemented with 10% FBS (PAN), 2 mM glutamine-alanine (PAN), 2 mM pyruvate (Sigma) and 10 mL/L penicillin-streptomycin and grown at 37° C. in 0.5% O2, 5% CO2 and 75% humidity. For hypoxia, cells were grown and treated in the Whitley H35 Hypoxystation (Don Whitley Scientific) at 37° C. in 0.5% O2, 5% CO2 and 75% humidity. The next day, cells were induced with test compounds (FIG. 1: compounds of examples 3/16, 3/8, 10 at 10000, 3333, 1111, 370, 123, 41, 14, 5 and 1.5 nM; FIGS. 8A and 8B: compounds of example 3/19, 30 and 30/2 at 10000, 3333, 1111, 370, 123, 41, 14, 5 and 1.5 nM), as well as with vehicle (DMSO) only, for 48 hours. After this time, the medium was removed from the cells and intracellular ATP levels were determined using the Promega CellTiter-Glo 2.0 assay protocol (Promega, G9241). To estimate the effect of compounds on the ATP production, sample values were compared to the values of DMSO only. IC50 values were generated by plotting the luciferase counts against compound concentration.

[3] = tested on: HeLa cell line expressing GFP-LC3; assay: Determination of autophagic flux; settings: HeLa GFP-LC3 reporter cells, 24 hours of treatment, flow cytometry, FIG. 6
Source text: A HeLa cell line stably expressing an artificial protein construct consisting of Green Fluorescent Protein (GFP) as an N-terminal fusion to the human full-length LC3 protein, placed in front of a Red Fluorescent Protein (RFP) as an N terminal fusion to human LC3 lacking its C-terminal Glycine residue (LC3DG), was used to determine autophagic flux (Kaizuka et al., Mol. Cell (2016) 17 835-849) This construct is cleaved in cells by ATG4 at the C-terminus of the full-length LC3 protein, whereupon the GFP-LC3 fragment becomes conjugated to phosphatidyl ethanolamine. The RFP-LC3DG cannot be lipidated, and can be used as an internal reference to produce ratiometric values reporting autophagic flux. The lipidated GFP-LC3 protein becomes incorporated into the membrane of autophagosomes, and upon fusion with lysosomes, is degraded. Consequently, cells with a high autophagic flux have less GFP-LC3, whereas a low autophagic flux results in a relatively higher intracellular amount of GFP-LC3.
Reporter cells were grown as sub-confluent cultures and test compounds were applied at various concentrations. Thapsigargin, a known inducer of autophagy, was used as a positive control. After 24 hours of treatment, a single-cell suspension was prepared by trypsinization, and the GFP fluorescence determined by flow cytometry. A minimum of 10,000 single cells were evaluated for each condition.

## Cc1ccc(NC(=O)c2ccc3c(c2)OCCO3)cc1NC(=O)c1cc2cccnc2s1 [3/16]
[1]
  ER stress markers CHAC, CHOP/DDIT3, XBP1 and SLC7A11: time-dependent upregulation
[2]
  ATP production level: dose-dependent reduction
[3]
  autophagic flux: significantly enhance

## O=C(Nc1ccc(F)c(NC(=O)c2cc3ccc(OCCCN4CCCC4)cc3s2)c1)c1ccc2c(c1)OCCO2 [3/8]
[1]
  ER stress markers CHAC, CHOP/DDIT3, XBP1 and SLC7A11: time-dependent upregulation
[2]
  ATP production level: dose-dependent reduction
[3]
  autophagic flux: significantly enhance
